Results on twelve molecules are retold here after PubChem BioAssay (NCI).

“And” between values parts separate entries of the source, which are not always exact repeats. Equal entries are not always repeated.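 Test compounds were applied to cells in 96-well plates for 48 hours at 5 doses. GI50 is the concentration that inhibits growth by half. At the TGI there is no net growth.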

Among the test systems are NCI-H522 lung; CCRF-CEM leukemia; MDA-MB-435; MDA-N; SN12C renal; MCF7 breast; EKVX NSCLC; MOLT-4 leukemia; DU-145 prostate; SNB-75 CNS; K-562 leukemia; A498 renal.
Test in all cases: NCI tumour cell line growth inhibition, 48 h

Consider `CN(C(=O)Cc1ccccc1)n1cnn(CC(=O)OC(C)(C)C)c1=S`, for which the TGI in the assay with NCI-H522 lung, in the assay with CCRF-CEM leukemia, in the assay on MDA-MB-435, in the assay on MDA-N, with SN12C renal and in the assay with MCF7 breast was more than 10 µM throughout. For the same molecule, the TGI in the assay on EKVX NSCLC, in the assay on MOLT-4 leukemia, in the assay on DU-145 prostate, in the assay with SNB-75 CNS, in the assay on K-562 leukemia and with A498 renal was more than 10 µM each time.
For `CCOC(=O)c1[nH]c(-c2[nH]c(-c3[nH]c(-c4[nH]c(C(=O)OCC)c(C)c4C(=O)OCC)c(C(=O)OCC)c3C)c(C)c2C(=O)OCC)c(C(=O)OCC)c1C`, the TGI in the assay on NCI-H522 lung, with CCRF-CEM leukemia, in the assay with MDA-MB-435, in the assay with MDA-N, in the assay on SN12C renal and with MCF7 breast was more than 100 µM throughout. In addition, the TGI with EKVX NSCLC, in the assay with MOLT-4 leukemia, in the assay on DU-145 prostate, in the assay with K-562 leukemia and in the assay on A498 renal was more than 100 µM in each case.
In the case of `C=C(C(=O)O)[C@@H]1C[C@@H]2O[C@H]1[C@@H](O)[C@@H](C)CCCC(C)=CCC[C@@]2(C)O`, the GI50 in the assay on NCI-H522 lung was 29.3 µM and 67.6 µM; with MOLT-4 leukemia, 27.2 µM and 56.9 µM; with K-562 leukemia, 32.3 µM and 83.5 µM. The TGI in the assay on NCI-H522 lung, with CCRF-CEM leukemia, in the assay on MDA-MB-435, in the assay with MDA-N, in the assay with SN12C renal and in the assay on MCF7 breast was more than 100 µM in each case. Further, the TGI with EKVX NSCLC, in the assay on MOLT-4 leukemia, with DU-145 prostate, in the assay with SNB-75 CNS, with K-562 leukemia and in the assay on A498 renal was more than 100 µM in each case.
Regarding `CC(=N\N)/C(C)=N/N=C(C)/C(C)=N/N`, the TGI in the assay with NCI-H522 lung, in the assay with CCRF-CEM leukemia, in the assay with MDA-MB-435, in the assay on MDA-N, in the assay with SN12C renal and in the assay with MCF7 breast was more than 100 µM in each case. The TGI in the assay with EKVX NSCLC, in the assay on DU-145 prostate, in the assay on SNB-75 CNS and in the assay on A498 renal was more than 100 µM in each case.
Turning to `O=C1/C(=C\c2cccc(Oc3ccccc3)c2)SC(c2ccccc2)N1c1ccccc1` (centres undefined), the TGI in the assay on NCI-H522 lung was more than 100 µM; with CCRF-CEM leukemia, 86.4 µM; in the assay with MDA-MB-435, more than 100 µM; in the assay on MDA-N it was 97.9 µM; with SN12C renal, more than 100 µM; with MCF7 breast it was more than 100 µM. The TGI in the assay with EKVX NSCLC, in the assay on MOLT-4 leukemia, in the assay on DU-145 prostate, in the assay with K-562 leukemia and in the assay on A498 renal was more than 100 µM throughout.
In the case of `O=C1C(Br)=C(c2ccccc2)O/C1=C/C(=O)c1ccc(Br)cc1`, the TGI was 39.1 µM in the assay with NCI-H522 lung; more than 100 µM in the assay on CCRF-CEM leukemia; more than 100 µM with MDA-MB-435; more than 100 µM in the assay on MDA-N; 26.9 µM with SN12C renal; more than 100 µM in the assay on MCF7 breast. Also, the TGI in the assay on EKVX NSCLC, with MOLT-4 leukemia, in the assay on DU-145 prostate, with SNB-75 CNS, with K-562 leukemia and in the assay with A498 renal was more than 100 µM throughout.
Turning to `c1cc2c(cc1NC1=NCCO1)OCO2`, the TGI in the assay with NCI-H522 lung was more than 100 µM; in the assay on CCRF-CEM leukemia, more than 21.1 µM; with MDA-MB-435, more than 100 µM; with MDA-N, more than 100 µM; with SN12C renal, more than 100 µM; in the assay on MCF7 breast it was more than 100 µM. Besides, the TGI in the assay with EKVX NSCLC, in the assay with MOLT-4 leukemia, in the assay on DU-145 prostate, in the assay with SNB-75 CNS, in the assay on K-562 leukemia and in the assay with A498 renal was more than 100 µM each time.
In the case of `Clc1ccc(C2=NN=C3C(c4ccccc4)=Nc4ccccc4N3C2)cc1`, the TGI with NCI-H522 lung was 8.17 µM; in the assay with CCRF-CEM leukemia, 15.2 µM; with MDA-MB-435 it was more than 100 µM; in the assay with MDA-N, more than 100 µM; in the assay with SN12C renal, more than 100 µM; in the assay with MCF7 breast it was more than 100 µM. In addition, the TGI was more than 27.1 µM in the assay on EKVX NSCLC; more than 23.2 µM with MOLT-4 leukemia; more than 41.9 µM in the assay on DU-145 prostate; more than 100 µM in the assay on K-562 leukemia; more than 100 µM in the assay on A498 renal.
As for `NC(N)=NC(N)=Nc1ccc(S(=O)(=O)O)cc1`, the TGI with NCI-H522 lung, in the assay on CCRF-CEM leukemia, in the assay on MDA-MB-435, in the assay on MDA-N, in the assay on SN12C renal and in the assay with MCF7 breast was more than 100 µM each time. The TGI with EKVX NSCLC, in the assay with DU-145 prostate, in the assay on SNB-75 CNS, in the assay with K-562 leukemia and in the assay with A498 renal was more than 100 µM in each case.
Take `O=C(O)C(O)C(O)C(=O)O` (centres undefined): the TGI in the assay on NCI-H522 lung, with CCRF-CEM leukemia, in the assay on MDA-MB-435, in the assay with MDA-N, in the assay with SN12C renal and with MCF7 breast was more than 100 µM each time. Besides, the TGI in the assay on EKVX NSCLC, with MOLT-4 leukemia, in the assay on DU-145 prostate, with SNB-75 CNS, in the assay on K-562 leukemia and in the assay with A498 renal was more than 100 µM in each case.
As for `COc1ccc(-n2[nH]nc(C(N)=O)c2=O)cc1`, the TGI in the assay with NCI-H522 lung, with CCRF-CEM leukemia, in the assay with MDA-MB-435, in the assay on MDA-N, in the assay with SN12C renal and in the assay with MCF7 breast was more than 100 µM throughout. Also, the TGI in the assay on EKVX NSCLC, with MOLT-4 leukemia, with DU-145 prostate, in the assay with SNB-75 CNS, in the assay with K-562 leukemia and with A498 renal was more than 100 µM throughout.
Turning to `O=C(/C=C/c1ccc(-c2ccccc2)cc1)NCc1ccc(C(=O)NCc2ccccc2)cc1`, the TGI with NCI-H522 lung, with CCRF-CEM leukemia, in the assay on MDA-MB-435, in the assay on MDA-N, with SN12C renal and in the assay with MCF7 breast was more than 100 µM throughout. For the same molecule, the TGI with EKVX NSCLC, in the assay on DU-145 prostate, in the assay on SNB-75 CNS and in the assay on A498 renal was more than 100 µM throughout.
